This is an account of results in paper PMC4626217 (Bioorganic & medicinal chemistry, 2015).

For one test, the system named is HDACs 1–3. The experiment in a line: HDAC biochemical assay, text summary over HDACs 1–3. More on the design: species or system human. The settings on record: summary of Table 1; for IC50: read-out: IC50 for HDACs 1–3; for IC50 range in words: HDACs 1–3 where stated, unit inside the printed words.
The test system of test [1] is 797 NUT midline carcinoma cell line. Description: 797 cell viability. The settings on record: 48 hours incubation, ATPLite; ± standard error of LogIC50. The test is classed as cell-based. Background: In ATP-based viability assays light output follows the ATP content of the culture.
Test [2] has as its system 10326 NUT midline carcinoma cell line. The experiment in a line: 10326 cell viability. Type of test: cell-based. The settings on record: 48 hours incubation, ATPLite; ± standard error of LogIC50.
A further test addresses HDAC1 (Homo sapiens, UniProt Q13547). The experiment in a line: HDAC biochemical assay. To be noted: relative to compound 6.

Chain of HDAC1 (Q13547 whole entry): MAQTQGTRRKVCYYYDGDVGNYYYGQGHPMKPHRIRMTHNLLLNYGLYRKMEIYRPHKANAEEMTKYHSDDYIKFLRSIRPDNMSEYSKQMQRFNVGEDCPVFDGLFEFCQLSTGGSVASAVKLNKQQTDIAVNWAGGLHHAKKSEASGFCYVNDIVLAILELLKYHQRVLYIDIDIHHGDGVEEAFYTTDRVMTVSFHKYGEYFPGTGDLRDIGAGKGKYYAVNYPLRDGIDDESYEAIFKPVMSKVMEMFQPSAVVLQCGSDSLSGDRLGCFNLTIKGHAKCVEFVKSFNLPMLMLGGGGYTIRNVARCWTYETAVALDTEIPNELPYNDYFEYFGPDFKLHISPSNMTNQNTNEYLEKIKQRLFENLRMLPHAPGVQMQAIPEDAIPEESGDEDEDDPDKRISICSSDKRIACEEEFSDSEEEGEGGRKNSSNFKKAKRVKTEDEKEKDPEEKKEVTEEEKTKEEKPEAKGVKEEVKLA

Take `CC(C)[C@@H]1NC(=O)[C@]2(C)CSC(=N2)c2csc(n2)CNC(=O)C[C@@H](/C=C/CCS)OC1=O` [Compound 2, Largazole thiol, reference compound]: the IC50 in the test on HDACs 1–3 is under 25 nM.
On to `CC(C)[C@@H]1NC(=O)[C@]2(C)CSC(=N2)c2csc(n2)CNC(=O)C[C@@H](/C=C/CCS)NC1=O` [Compound 4, Largazole peptide isostere thiol], for which the “797 LogIC50” value in test [1] was −5.761 ± 0.05449. For the same compound, the “10326 LogIC50” value in test [2] is given as −4.923 ± 0.9900. In addition, in the test on HDACs 1–3, the concentration for half-maximal inhibition (IC50) is under 25 nM.
Take `CC(C)[C@@H]1NC(=O)[C@]2(C)CSC(=N2)c2cccc(n2)CNC(=O)C[C@@H](/C=C/CCS)OC1=O` [Compound 6, Depsipeptide pyridyl “IN” thiol]: in the test on HDACs 1–3, the IC50 is under 25 nM and the “IC50 range in words” value was “single digit nM range”.
The matching figures for `CC(C)[C@@H]1NC(=O)[C@]2(C)CSC(=N2)c2ccnc(c2)CNC(=O)C[C@@H](/C=C/CCS)OC1=O` [Compound 8, Depsipeptide pyridyl “OUT” thiol]: under 25 nM and “single digit nM range”.
For the compound `CC(C)[C@@H]1NC(=O)[C@]2(C)CSC(=N2)c2cccc(n2)CNC(=O)C[C@@H](/C=C/CCS)NC1=O` [Compound 10, Peptide isostere pyridyl “IN” thiol], the “fold decrease in activity in HDAC1 in going from 6 to its amide isostere” value at HDAC1 amounted to 16 fold. Further, the “IC50 range in words” value in the test with HDACs 1–3 was “double-digit nM range”.
In the case of `CC(C)[C@@H]1NC(=O)[C@]2(C)CSC(=N2)c2ccnc(c2)CNC(=O)C[C@@H](/C=C/CCS)NC1=O` [Compound 12, Peptide isostere pyridyl “OUT” thiol], in the test on HDACs 1–3, the IC50 is under 25 nM and the “IC50 range in words” value is recorded as “double-digit nM range”.

What is called IC50 is the concentration that inhibits the measured activity by half.
